One data set can be described thus: Cytotoxicity assay (MTT). It is filed as cell-based. The note with it: human; HeLa cell line KB3.1; MTT, five days; NA = No activity; a = Proliferation inhibition, no altered or dead cells. The method, then: To evaluate the biological effects of compounds 1–6, various assays were carried out. The antimicrobial activity of the isolated compounds against Bacillus subtilis DSM10, Escherichia coli DSM498, Candida tenuis MUCL29892, and Mucor plumbeus MUCL49355 was determined as described by Kuephadungphan and co-workers. The nematicidal activity against Caenorhabditis elegans was investigated using a microtiter plate assay according to Helaly and co-workers, while the cytotoxicity was tested against murine fibroblast (L929) and human HeLa (KB3.1) cell lines according to Chepkirui and co-workers.
Biological activity screening of compounds 1–6 […]
The isolated compounds were tested for cytotoxic activity using the MTT (3 -(4,5-dimethylthiayol -2-yl)-2,5-diphenyltetrayolium bromide) method in 96 -well microtiter plates following the procedure previously described by Chepkirui et al.7 against th e cervix carcino ma cell line KB3.1 and the established mouse fibroblast cell line L929. The assay was kindly conducted by Wera Collisi, Department of Microbial Drugs, Helmholtz Centre of Infection Research, Germany. The tested cell lines were cultured in EBM -2 (Lonza) sup plemented with 10% fetal bovine serum (Gibco) under 10% CO2 at 37 °C. A 60 µL of serial dilutions from an initial stock (1 mg/mL) of the test compounds in MeOH was added to 120 µL aliquots of a cell suspension (50,000 cells/mL) in 96-well microplates.
After incubation for five days, 20 µL of MTT in phosphate buffered saline (PBS) were added to give a final concentration of 0.5 mg/mL. The plates were further incubated for two hours. The precipitate […]
of formazan crystals was centrifuged and the supernatant was then discarded. Each well was washed with 100 µL of PBS and 100 µL of isopropanol containing 0.4% hydrochloric acid were subsequently added in order to get the residual dissolved. The plates were gently shaken for 20 min before the absorbance at 590 nm was measured using an ELISA microplate reader (Victor). The concentration, at which the growth of cells was inhibited to 50% of the control (IC50), was obtained from the dose - response curves. Methanol was used as negative control while epothilone A and B wer e used as positive controls for L929 and KB3.1 cell lines, respectively. […]
After incubation at 37 °C under shaking condition, the overnight cultures were adjusted to equal the turbidity of 0.5 McFarland standard using the assay medium. The assay was carried out in 96 -well tissue cultured -treated microplates (TPP®, Germany) for S. aureus and non-treated plates (Falcon®MicroTestTM, USA) for P. aeruginosa , in which 10 μ L of each compound (0.5 mg/m L) in six replicates were mixed together with 140 μ L of bacterial suspension. Methanol and CASO medium with and without 4% glucose were used as negative controls and tetracycline (100 μg/m L) as positive control. Plates were covered with a sterile adhesive porous paper (Kisker Biotech GmbH, Steinfurt, Germany) and incubated at 37 °C for 24 h.
After incubation, ba cterial biofilms were stained with 0.1% crystal violet solution (Sigma -Aldrich) following the protocol of O’Toole .9 Then, the biofilm was subsequently quantified using a microplate reader at 550 nm. […]
aeruginosa PA14 were further evaluated for their bacteriostatic and bactericidal activit ies. The assay was performed in the Bioscreen 100 -well Honeycomb plate according to the protocol described by Yuyama et al. 13 where the MIC values were determined. […]

A further data set has as its system S. aureus DSM1104. As to the kind of experiment: Bacteriostatic and bactericidal activity assay (Bioscreen growth curves, MBC on agar). The class given is cell-based, Staphylococcus aureus. The conditions noted are these: for MIC90: read-out: Bacteriostatic activity MIC90; for Growth of S. aureus cells relative to growth control: at the lowest concentration where the biofilm formation was interrupted. Here is the method: The assay was performed with each concentration tested in quadruplicates. The MIC was considered as the lowest concentration where the percentage of inhibition was higher than or equal to 90%. The minimum bactericidal concentration (MBC) of isolated compounds was also determined by transferring an aliquot of 2 µL from all concentrations tested onto nutrient agar (NA) plates, which were then incubated at 30 °C for 24 h. The MBC endpoint was defined as the lowest concentration of the compounds that killed microorganisms, where no visible growth of the microorganism tested was observed on the agar plates. The experimental procedures and the results are given in detail in Supporting Information File 1. […]
Bacteriostatic and bactericidal activity assay […]
aeruginosa PA14 were further evaluated for their bacteriostatic and bactericidal activit ies. The assay was performed in the Bioscreen 100 -well Honeycomb plate according to the protocol described by Yuyama et al. 13 where the MIC values were determined. The bacterial inoculum was prepared by growing S. aureus DSM1104 in Luria -Bertani broth (LB) for 24 h at 30 °C and then adjusting to 0.5 McFarland turbidity standard. The 0.5 McFarland bacterial suspension (296.25 µL) was transferred to the well containing 3.75 µL of each compound (20 mg/mL) and was subsequently two -fold diluted to give 8 concentrations ranging from 250 –1.95 µg/mL. Since compound 2 and the remaining five compounds could completely be dissolved in MeOH and dimethyl sulfoxide (DMSO), respectively, MeOH and DMSO were used as the solvent controls. The assay was performed with each concentration tested in quadruplicate. The bacterial growth was monitored on the Bioscreen -C automated growth curve analysis system (Oy Growth Curves AB Ltd, Helsinki, Finland) for 24 h with the optical density at 600 nm measured at 15 -min intervals. The MIC of each compound tested was read at 24 h of incubation and was considered as the lowest concentration where the percentage of inhibition was higher than or equal to 90%. Herein, the minimum bactericidal concentration (MBC) of isolated compounds was also determined by transferring an aliquot of 2 µL from all concentration tested onto Nutrient Agar (NA) plates which were then incubate d at 30 °C for 24 h. The MBC endpoint was defined as the lowest concentration of the compounds that kill microorganisms where no visible growth of the microorganism tested was observed on the agar plates.

Another data set relates to B. subtilis. On the set-up: method as in PMID 22889083. The conditions noted are these: reported by Grove and co-workers; cited from earlier work.
Where [1] appears, read: S. aureus, minimum bactericidal concentration, no visible growth on NA plates, 30 °C, 24 h.
The mark [2] stands for this setting: Staphylococcus aureus, DSM1104, 24 h.

In brackets after ≈: the same amount, converted by molar mass. Where two headings read alike, the source gives them in different places.

One may read the IC50 as the midpoint of a concentration-inhibition curve. Lower therefore signals greater potency. The term MIC90 denotes an inhibitory concentration at the 90% level, which refers to growth in some studies and to a panel of isolates in others.

Take `COc1cc(O)c2c(O)c3c(cc2c1-c1c(OC)cc(O)c2c(O)c4c(cc12)CC(C)OC4=O)CC(C)OC3=O` (centres unmarked) [Pigmentosin A (1), pigmentosin A]: the IC50 in “Cytotoxicity assay (MTT)” was 17 µg/mL (≈ 31.1 µM). For the same compound, in the data set with S. aureus DSM1104 (S. aureus, 24 h), the “Cell growth (%) at 1.9 µg/ml” value is 89.5%, the “Cell growth (%) at 3.9 µg/ml” value is 53.2%, the “Cell growth (%) at 7.8 µg/ml” value is listed as 32.8% and the “Cell growth (%) at 15.6 µg/ml” value is listed as 30.3%. Moreover, in the data set with S. aureus DSM1104 (S. aureus, 24 h), the “Cell growth (%) at 31.3 µg/ml” value is 25.4%, the “Cell growth (%) at 62.5 µg/ml” value amounted to 22.6%, the “Cell growth (%) at 125 µg/ml” value is recorded as 23.8% and the “Cell growth (%) at 250 µg/ml” value is 32.5%. Besides, the MBC entry against S. aureus DSM1104 (setting [1]) is recorded as “higher than 250 µg/ml”. Also, in the data set on S. aureus DSM1104 (setting [2]), the MBC was over 250 µg/mL and the MIC90 was over 250 µg/mL. In the data set with S. aureus DSM1104, the “Growth of S. aureus cells relative to growth control” value is “more than 80%”. Also, the “MIC against B. subtilis” value with B. subtilis was 20 µg/mL (≈ 36.6 µM).
Regarding `COc1cc(O)c2c(O)c3c(cc2c1-c1c(OC)cc(O)c2c(O)c4c(cc12)CC(CC(C)O)OC4=O)CC(C)OC3=O` (centres unmarked) [Pigmentosin B (2), pigmentosin B], in the data set on S. aureus DSM1104 (S. aureus, 24 h), the “Cell growth (%) at 1.9 µg/ml” value is 100%, the “Cell growth (%) at 3.9 µg/ml” value came out at 94.4%, the “Cell growth (%) at 7.8 µg/ml” value is listed as 84.9% and the “Cell growth (%) at 15.6 µg/ml” value stood at 54.3%. In the data set on S. aureus DSM1104 (S. aureus, 24 h), the “Cell growth (%) at 31.3 µg/ml” value came to 40.9%, the “Cell growth (%) at 62.5 µg/ml” value is 42.8%, the “Cell growth (%) at 125 µg/ml” value stood at 29.9% and the “Cell growth (%) at 250 µg/ml” value stood at 26.8%. Also, the MBC entry against S. aureus DSM1104 (setting [1]) is “higher than 250 µg/ml”. Further, in the data set on S. aureus DSM1104 (Staphylococcus aureus, DSM1104, S. aureus, lowest concentration with inhibition >= 90% at 24 h), the MIC90 was over 250 µg/mL. Further, the MBC in the data set with S. aureus DSM1104 (Staphylococcus aureus, DSM1104, S. aureus, minimum bactericidal concentration, no visible growth on NA plates, 30 °C, 24 h, read-out: MBC) was over 250 µg/mL. The “Growth of S. aureus cells relative to growth control” value in the data set on S. aureus DSM1104 is reported as “more than 80%”.

(Values after publication PMC6941404, “Pigmentosins from Gibellula sp. as antibiofilm agents and a new glycosylated asperfuran from Cordyceps javanica” (Beilstein Journal of Organic Chemistry, 2019).)
